We go through three compounds from publication PMC3337729 (Anesthesiology, 2011).

For experiment [1], the target named is T1, Complex I (NADH-ubiquinone oxidoreductase) (Rattus norvegicus, UniProt A6K8N6+P03889+Q5XIH3+Q641Y2). The experiment in a line: rotenone-sensitive NADH oxidation, absorbance at […] nm. The format is biochemical. To be noted: 0.2 mM NADH, antimycin A present.
The target of experiment [2] is T1, Complex I (NADH-ubiquinone oxidoreductase). The description is as above. The settings on record: read-out: % of control activity at 0.5 mM. The format is biochemical.

With `NC(=O)C1=CN([C@@H]2O[C@H](COP(=O)(O)OP(=O)(O)OC[C@H]3O[C@@H](n4cnc5c(N)ncnc54)[C@H](O)[C@@H]3O)[C@@H](O)[C@H]2O)C=CC1` [NADH], the “rotenone-sensitive NADH oxidation, absorbance at 340 nm” value in experiment [1] (decylubiquinone acceptor) is “Complex I activity was determined by the rotenone-sensitive reduction of NADH absorbance using decylubiquinone”. For the compound `CCCCCCCCCCC1=C(C)C(=O)C(OC)=C(OC)C1=O` [decylubiquinone], the “rotenone-sensitive NADH oxidation, absorbance at 340 nm” value in experiment [1] (decylubiquinone printed as 75 mM) is recorded as “rotenone-sensitive reduction of NADH absorbance using decylubiquinone as acceptor”. Consider `FC(F)OC(Cl)C(F)(F)F` (stereo not drawn) [isoflurane], for which the remaining activity at 500 µM in experiment [2] is 86 ± 5%.
